Experimental data reported in the supplement of paper PMC10307832.

Assays:
Experiment in all cases: relative viability (nuclei count vs DMSO), 5 days (fraction); higher = more cells survive
Carboplatin + Pictilisib = compound: C1CC(C1)(C(=O)O)C(=O)O.[NH2-].[NH2-].[Pt+2] [Carboplatin] + CS(=O)(=O)N1CCN(Cc2cc3nc(-c4cccc5[nH]ncc45)nc(N4CCOCC4)c3s2)CC1 [Pictilisib] (partner 1 µM)
How it was run: (§1)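 Relative viability divides the nuclei count in treated wells by that in vehicle wells. Lung cancer cell lines were seeded in 1536-well plates, dosed by pin tool the next day, and fixed and stained after 5 days in one step with final 0.05% Triton X-100, 1% formaldehyde and 1 ug/ml Hoechst. Dosing was a single drug or a fixed anchor-drug dose plus five library-drug doses (not always all listed) in √10 steps, and values are medians of duplicate plates imaged at 4×.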

MLN4924 + Navitoclax = compound: NS(=O)(=O)OC[C@@H]1C[C@@H](n2ccc3c(N[C@H]4CCc5ccccc54)ncnc32)C[C@@H]1O [MLN4924] + CC1(C)CCC(c2ccc(Cl)cc2)=C(CN2CCN(c3ccc(C(=O)NS(=O)(=O)c4ccc(N[C@H](CCN5CCOCC5)CSc5ccccc5)c(S(=O)(=O)C(F)(F)F)c4)cc3)CC2)C1 [Navitoclax] (partner 0.5 µM)
How it was run: as §1

MLN4924 + Linsitinib = compound: NS(=O)(=O)OC[C@@H]1C[C@@H](n2ccc3c(N[C@H]4CCc5ccccc54)ncnc32)C[C@@H]1O [MLN4924] + C[C@]1(O)C[C@@H](c2nc(-c3ccc4ccc(-c5ccccc5)nc4c3)c3c(N)nccn32)C1 [Linsitinib] (partner 1 µM)
How it was run: as §1

GSK126 + Lapatinib = compound: CC[C@H](C)N1C=C(C2=C(C=C(C=C21)C3=CN=C(C=C3)N4CCNCC4)C(=O)NCC5=C(C=C(NC5=O)C)C)C [GSK126] + CS(=O)(=O)CCNCc1ccc(-c2ccc3ncnc(Nc4ccc(OCc5cccc(F)c5)c(Cl)c4)c3c2)o1 [Lapatinib] (partner 2 µM)
How it was run: as §1

Cell Line	relative viability (Carboplatin + Pictilisib; first compound 0.08 µM)	relative viability (Carboplatin + Pictilisib; first compound 0.253 µM)	relative viability (Carboplatin + Pictilisib; first compound 0.8 µM)	relative viability (Carboplatin + Pictilisib; first compound 2.53 µM)	relative viability (Carboplatin + Pictilisib; first compound 8 µM)	relative viability (MLN4924 + Navitoclax; first compound 0.04 µM)	relative viability (MLN4924 + Navitoclax; first compound 0.1265 µM)	relative viability (MLN4924 + Navitoclax; first compound 0.4 µM)	relative viability (MLN4924 + Navitoclax; first compound 1.265 µM)	relative viability (MLN4924 + Navitoclax; first compound 4 µM)	relative viability (MLN4924 + Linsitinib; first compound 0.04 µM)	relative viability (MLN4924 + Linsitinib; first compound 0.1265 µM)	relative viability (MLN4924 + Linsitinib; first compound 0.4 µM)	relative viability (MLN4924 + Linsitinib; first compound 1.265 µM)	relative viability (MLN4924 + Linsitinib; first compound 4 µM)	relative viability (GSK126 + Lapatinib; first compound 0.08 µM)	relative viability (GSK126 + Lapatinib; first compound 0.253 µM)	relative viability (GSK126 + Lapatinib; first compound 0.8 µM)	relative viability (GSK126 + Lapatinib; first compound 2.53 µM)	relative viability (GSK126 + Lapatinib; first compound 8 µM)
NCI-H1666	0.527	0.561	0.404	0.403	0.389	0.858	0.503	0.328	0.213	0.224	1.01	0.504	0.263	0.225	0.252	0.635	0.608	0.724	0.704	0.695
HCC-366	0.138	0.128	0.0961	0.158	0.106	1.06	1.09	0.353	0.241	0.0154	0.838	0.933	0.513	0.0247	0.0197	1.02	0.948	1.08	1.09	1.12
LCLC-97TM1	0.209	–	0.233	0.194	0.18	0.277	0.281	0.139	0.134	0.109	0.191	0.23	0.156	0.103	0.131	1.22	–	1.11	1.66	0.841
NCI-H2405	0.588	0.405	0.472	0.45	0.428	0.874	0.702	0.273	0.13	0.171	1.09	1.12	0.686	0.246	0.245	1.12	1.02	1.06	1.17	1.15
NCI-H1915	0.938	0.929	0.919	0.85	0.588	0.725	0.744	0.642	0.246	0.265	1.05	0.82	0.898	0.213	0.222	1.08	0.97	1.03	0.978	0.993
NCI-H596	0.455	0.36	0.389	0.333	0.373	0.969	0.99	0.62	0.68	0.28	1.2	1.3	0.744	0.853	0.304	1.11	0.932	0.951	1.11	1.08
HCC-44	0.577	0.552	0.666	0.554	0.592	0.689	0.4	0.265	0.197	0.196	0.561	0.219	0.199	0.156	0.129	0.998	1.07	1.04	0.846	1.02
NCI-H2087	0.968	0.868	0.859	0.826	0.504	0.923	0.682	0.379	0.177	0.132	0.775	0.776	0.311	0.172	0.187	1.41	0.931	1.11	1.22	1.3
